Test results as given in ChEMBL document CHEMBL1201862, “PubChem BioAssay data set” (2004).
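Where inhibition never reached the appropriate level, the endpoint shown equals the highest concentration tested. Otherwise, values were interpolated linearly from a five-concentration, 48-hour dose response in 96-well plates. GI50 is the concentration that inhibits growth by half.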 Calls of active or inactive are those of the source. No stated cut-off is given here; in the data, active = GI50 up to about 1.1 µM and inactive = higher.

Legend:
Assay in all cases: NCI tumour cell line growth inhibition, 48 h
[1] = system: SK-OV-3
[2] = system: SNB-19
[3] = system: HL-60
[4] = system: K562
[5] = system: NCI-H460
[6] = system: A498
[7] = system: ACHN
[8] = system: CCRF-CEM
[9] = system: 786-0
[10] = system: SK-MEL-2
[11] = system: M14
[12] = system: SF-268
[13] = system: SF-539
[14] = system: A549
[15] = system: RXF 393
[16] = system: SN12C

Measured: GI50

COc1ccc(OC)c(/C=N/N=C(\N)NO)c1
inactive: [1] 30.7 µM | [2] 88.7 µM | [3] 25.4 µM | [4] 6.81 µM | [5] 15 µM | [6] > 10 µM | [7] 12.3 µM | [8] 16.6 µM | [9] 21.4 µM | [10] 42.3 µM | [11] 20.1 µM | [12] 23.3 µM | [13] 7.62 µM | [14] 8.22 µM | [15] 39.5 µM | [16] 31.4 µM

CC(C)(C)c1ccc(OCCOCCOc2ccc(C(C)(C)C)cc2S(=O)(=O)Nc2ccc([N+](=O)[O-])cc2)c(S(=O)(=O)Nc2ccc([N+](=O)[O-])cc2)c1
inactive: [1] > 100 µM | [2] 76.4 µM | [3] 5.58 µM | [4] 6.21 µM | [5] 8.85 µM | [6] 8.15 µM | [7] 7.13 µM | [8] 5.42 µM | [9] 45.6 µM | [10] 8.07 µM | [11] 8.28 µM | [12] 8.45 µM | [13] > 100 µM | [14] 4.42 µM | [15] 19.2 µM | [16] 7.19 µM

COc1ccccc1/C=C(\NC(=O)c1ccccc1)c1nc2ccccc2[nH]1
inactive: [1] 51.1 µM | [2] 34 µM | [4] 32.9 µM | [5] 50.8 µM | [6] 56 µM | [7] 36.6 µM | [8] 40.6 µM | [9] 40.1 µM | [10] 27.4 µM | [11] 39.8 µM | [12] 37.3 µM | [13] 53.7 µM | [14] 46.8 µM | [15] 76.6 µM | [16] 48.8 µM

CC(Oc1ccc(OCC2CCCCC2)cc1)C(=O)O (configuration not stated)
inactive: [1] > 100 µM | [3] > 100 µM | [4] > 100 µM | [5] > 100 µM | [7] > 100 µM | [8] > 100 µM | [9] > 100 µM | [10] > 100 µM | [11] > 100 µM | [12] > 100 µM | [13] > 100 µM | [14] > 100 µM | [16] > 100 µM

Cc1cc(C)nc(NS(=O)(=O)c2ccc(Nc3c4ccccc4nc4c(C(=O)Nc5ccc(S(N)(=O)=O)cc5)cccc34)cc2)n1
inactive: [1] 11.8 µM | [2] 47 µM | [4] 72.4 µM | [5] 88.1 µM | [6] 43.3 µM | [7] > 100 µM | [8] > 100 µM | [9] > 100 µM | [10] > 100 µM | [11] 71.6 µM | [12] 50.9 µM | [13] > 100 µM | [14] > 100 µM | [15] 38 µM | [16] > 100 µM

C[C@H]1C=C2C(=O)O[C@H]3CC[C@@H](C1)[C@@]23O
inactive: [1] 8 µM | [2] 16.3 µM | [3] 2.12 µM | [4] 2.37 µM | [5] 6 µM | [6] 10.6 µM | [7] 4.97 µM | [8] 2.01 µM | [9] 3.28 µM | [10] 2.71 µM | [11] 3.83 µM | [12] 3.13 µM | [13] 2.03 µM | [14] 11.2 µM | [15] 2.79 µM | [16] 2.4 µM

O=C(Nc1nc2ncn(CCI)c2c(=O)[nH]1)c1ccccc1
inactive: [1] 33.7 µM | [2] 41.9 µM | [3] > 100 µM | [4] > 100 µM | [5] > 100 µM | [6] 16 µM | [7] > 75 µM | [8] > 100 µM | [9] 46.1 µM | [10] > 53.5 µM | [11] > 100 µM | [12] 21.5 µM | [13] 26.1 µM | [14] 76 µM | [15] 26.9 µM | [16] 59.3 µM

CC(=O)OC1CCC2C(=CCC3C2(C)C(=O)CC2(C)C(C4(C)OC(C(C)C)=CC4=O)C(O)CC32C)C1(C)C (configuration not stated)
inactive: [1] 35.7 µM | [2] > 100 µM | [4] 35.5 µM | [5] 27 µM | [6] > 100 µM | [7] 40.7 µM | [8] 31 µM | [9] > 100 µM | [10] 27.1 µM | [11] 23.3 µM | [12] 28.1 µM | [13] 18.1 µM | [14] 31.6 µM | [16] 54.5 µM

O=C(Nc1ccccc1[N+](=O)[O-])C(=O)C(C(=O)c1ccccc1-c1ccccc1)C1OC(=O)c2ccccc21 (configuration not stated)
inactive: [1] 30.8 µM | [2] 13.6 µM | [3] 14.7 µM | [4] 17.2 µM | [5] 15.9 µM | [6] 21.7 µM | [7] 30.8 µM | [8] 13.5 µM | [9] 14.7 µM | [10] 16.7 µM | [11] 15.5 µM | [12] 14.3 µM | [13] 11.6 µM | [14] 24.5 µM | [15] 12.1 µM | [16] 14.6 µM

COc1cc(/C=C/c2ccncc2)cc(OC)c1OC
inactive: [2] > 100 µM | [3] 24.6 µM | [4] 52.7 µM | [5] > 100 µM | [6] 30.5 µM | [7] > 100 µM | [8] 42.9 µM | [9] 72.4 µM | [11] > 100 µM | [12] > 100 µM | [13] > 100 µM | [14] > 100 µM | [15] 26.4 µM | [16] 96.2 µM

CC(O)C(NC(=O)c1ccccc1)C(=O)N(Cc1ccccc1)Cc1ccccc1 (configuration not stated)
inactive: [1] > 100 µM | [2] > 100 µM | [3] 18.9 µM | [4] 97.9 µM | [5] > 100 µM | [6] 69.3 µM | [7] > 100 µM | [8] > 100 µM | [9] > 100 µM | [10] > 100 µM | [11] > 100 µM | [12] > 100 µM | [13] > 100 µM | [14] 80.9 µM | [16] > 100 µM

CCc1cccc(C(C)C)c1NC(=O)CCl
inactive: [1] > 100 µM | [2] 28.1 µM | [3] 22.4 µM | [4] > 100 µM | [7] 90.2 µM | [8] 37.1 µM | [9] > 100 µM | [10] > 100 µM | [11] 46.3 µM | [12] > 100 µM | [13] > 100 µM | [14] > 100 µM | [16] > 100 µM

Cc1ccc(-n2cc(/C(N)=N/O)c3ccccc3c2=O)cc1
inactive: [1] > 100 µM | [2] > 100 µM | [3] > 100 µM | [4] > 100 µM | [5] > 100 µM | [7] > 100 µM | [8] > 100 µM | [9] > 100 µM | [11] > 100 µM | [12] > 100 µM | [13] > 100 µM | [14] > 100 µM | [16] > 100 µM
